Patent US20210196670A1, “ORAL FORMULATIONS OF LAVENDER AND CANNABINOIDS” (EMERALD HEALTH THERAPEUTICS CANADA INC., priority 2018, published 2021)

Test system: activation of NF-κB by TNFα
Experiment: NF-κB luciferase reporter assay (TNFα-stimulated NIH-3T3-KBFLuc cells)
Assay type: cell-based
Details: for Experiment 1 % of activity / Experiment 2 % of activity / Experiment 3 % of activity / Conclusions: Is inhibition of TNF activation of NF-κB observed?: cannabinoid 10 μM alone; for Experiment 1 % of activity / Experiment 2 % of activity / Experiment 3 % of activity: TNFα 30 ng/mL = 100%; for Conclusions: Is inhibition of TNF activation of NF-κB observed?: mean of three experiments
Description: The NF-kB pathway inhibition in response to treatment with the Cannabinoid and NHP either as single agents or in combination will be monitored using the Luciferase Reporter gene assay described in Del Prete et al, J. Nat. Prod.
For the anti-NF-κB activity stably transfected NIH-3T3-KBFLuc cells are treated with different concentration of NHP compounds for 30 minutes and then stimulated with TNF-α (30 ng/mL). After treatment, the cells are washed twice in phosphate-buffered saline and lysed in 25 mM Tris-phosphate pH 7.8, 8 mM MgCl2, 1 mM DTT, 1% Triton X-100, and 7% glycerol during 15 min at room temperature in a horizontal shaker. Luciferase activity in the supernatant is measured using a TriStar2 Berthold/LB942 multimode reader (Berthold Technologies) following the manufacturer's instructions of the luciferase assay kit (Promega, Madison, Wis., US). For NF-κB inhibition the RLU (relative light units) is calculated, and the results are normalized to 100% stimulation induced by induced by TNF-α (100% activation). The results are presented from three independent experiments.

C=C(C)[C@@H]1CCC(C)=C[C@H]1c1c(O)cc(CCCCC)cc1O [CBD, cannabidiol]
inhibition of NF-κB activity by the cannabinoid itself (10 μM, alone): non-inhibitory
Experiment 1 % of activity: 93.6%
Experiment 2 % of activity: 97.0%
Experiment 3 % of activity: 108.2%
Conclusions: Is inhibition of TNF activation of NF-κB observed?: Negative (Only treatments that the mean of three consecutive independent experiments shows a positive result (activity ≤50%) are considered inhibitory of NF-κB activity)

CCCCCc1cc(O)c2c(c1)OC(C)(C)[C@@H]1CCC(C)=C[C@@H]21 [THC, tetrahydrocannabinol]
Experiment 1 % of activity: 102.5%
Experiment 2 % of activity: 97.8%
Experiment 3 % of activity: 98.5%
Conclusions: Is inhibition of TNF activation of NF-κB observed?: Negative (Only treatments that the mean of three consecutive independent experiments shows a positive result (activity ≤50%) are considered inhibitory of NF-κB activity)
